Source: publication PMC2914800 (Biochemistry, 2010)
pKd: −log10 of the molar value.

How the values were obtained:
HasAp [1] = target: HasAp (Pseudomonas aeruginosa, UniProt G3XD33); experiment: stopped-flow UV-vis kinetics at […] °C; assay type: binding
HasAp [2] = target: T1, HasAp (Pseudomonas aeruginosa, UniProt G3XD33, H32A); experiment: stopped-flow UV-vis kinetics at […] °C; assay type: binding
T1 sequence (G3XD33 1-184 H32A): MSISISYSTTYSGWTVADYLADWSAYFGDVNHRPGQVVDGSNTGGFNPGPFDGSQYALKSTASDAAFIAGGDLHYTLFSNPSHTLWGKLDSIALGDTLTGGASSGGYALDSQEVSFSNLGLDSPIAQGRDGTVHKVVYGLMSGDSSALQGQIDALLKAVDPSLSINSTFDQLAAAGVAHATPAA

**Q.** C=CC1=C(C)C2=Cc3c(C=C)c(C)c4[n]3[Fe]([Cl])[n]3c(c(C)c(CCC(=O)O)c3=CC3=NC(=C4)C(C)=C3CCC(=O)O)=CC1=N2 [hemin] was tested. Which pKd (HasAp [1]) did it give?
**A.** 4.46

**Q.** And the pKd (HasAp [2])?
**A.** 4.21
